Starred links: 1 amine or outer side, 2 acyl side, 3 side chain; linkers in the order of their positions; H or OH if unused. Non-standard residues stand in square brackets, D forms with d. Residues, ends and D or L forms follow the SMILES beside them. No end group written: not given here. *: point of attachment. Ala(1H-tetrazol-5-yl) = N[C@@H](Cc1nnn[nH]1)C(=O)O; Tz = tetrazole-substituted aspartic acid; X1 = O=C([C@@H](Cc1nnn[nH]1)N[*:1])[*:2]; X3 = O=C([C@H](CCc1nnn[nH]1)N[*:1])[*:2]; Isovaleryl = CC(C)CC(=O)*; Nle = CCCC[C@H](N)C(=O)O; Propionyl = CCC(=O)*
T1: PAC1 receptor (UniProt P41586 21-468, limits assumed)
T1 sequence (looked up): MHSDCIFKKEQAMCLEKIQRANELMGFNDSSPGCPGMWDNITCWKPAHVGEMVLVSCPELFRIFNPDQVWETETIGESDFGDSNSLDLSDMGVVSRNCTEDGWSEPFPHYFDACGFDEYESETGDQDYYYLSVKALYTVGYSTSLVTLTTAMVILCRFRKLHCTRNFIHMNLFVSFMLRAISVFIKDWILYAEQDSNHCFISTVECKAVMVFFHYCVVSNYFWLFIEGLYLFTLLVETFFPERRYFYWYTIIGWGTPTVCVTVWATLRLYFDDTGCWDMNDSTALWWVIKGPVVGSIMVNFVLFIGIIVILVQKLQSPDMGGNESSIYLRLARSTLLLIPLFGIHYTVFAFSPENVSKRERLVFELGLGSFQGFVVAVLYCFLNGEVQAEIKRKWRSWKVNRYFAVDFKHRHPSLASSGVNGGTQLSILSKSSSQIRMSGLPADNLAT

T2: VPAC1 receptor (UniProt P32241 31-457, limits assumed)
T2 sequence (looked up): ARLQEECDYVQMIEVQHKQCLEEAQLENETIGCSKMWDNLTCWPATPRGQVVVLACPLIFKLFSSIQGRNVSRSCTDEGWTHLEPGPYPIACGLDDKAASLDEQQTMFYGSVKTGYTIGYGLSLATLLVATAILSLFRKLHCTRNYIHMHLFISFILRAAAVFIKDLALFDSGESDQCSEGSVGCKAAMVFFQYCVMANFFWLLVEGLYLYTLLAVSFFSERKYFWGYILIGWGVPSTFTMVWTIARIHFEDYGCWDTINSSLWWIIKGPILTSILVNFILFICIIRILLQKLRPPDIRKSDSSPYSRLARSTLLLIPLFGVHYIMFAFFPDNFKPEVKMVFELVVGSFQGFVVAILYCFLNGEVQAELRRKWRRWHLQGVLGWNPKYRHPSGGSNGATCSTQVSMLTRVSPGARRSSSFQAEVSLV


What was measured:
[1] = Stability test 1: survival rate of peptide in phosphate buffer (pH 7.0) after storage, HPLC; type: physicochemical; settings: 100 μM peptide, phosphate buffer pH 7.0, 40° C.; for survival rate after correction for water, 40° C. 2 week: 2 weeks (Table 6); for survival rate after correction for water, 40° C. 8 week: 8 weeks (Table 6); for survival rate after correction for water, 40° C. 4 week: 4 weeks (Table 8)
Method: The 1.0 mM peptide solutions were then diluted with phosphate buffer to 100 μM. […] The prepared peptide solutions were incubated for one month or 2 months in a 40° C. thermostatic bath to obtain stored samples.
Using the total weight of the aqueous peptide solution and storage vessel as the specimen weight, measurements were recorded as the specimen weights before storage and the specimen weights after storage under different storage conditions. The empty weight of the storage vessel was also measured, and the moisture permeability was determined by the following formula.
After stirring the standard sample and the stored samples with a vortex mixer, each peptide solution was transferred to an HPLC vial (Deactivated Qsert vial by Waters Co.). Reverse-phase HPLC (HPLC system: Prominence by Shimadzu Corp.) was conducted under the conditions shown in Table 3 below for analysis of the peptide solutions, and chromatograms were obtained.
The peak area value for the peptide in the chromatogram was calculated, and the survival rate (survival rate before correction for water) was calculated using formula (2). The survival rate after correction for water was also calculated from the survival rate before correction for water using formula (3) to take into account the permeability of the container.
Peptide solutions prepared by the same method as [Measuring sample preparation 1] for the peptides synthesized in Example 2 (peptides 13 to 16) were incubated for 2 weeks and 8 weeks in a thermostatic bath at 40° C. to obtain stored samples.
Peptide solutions prepared by the same method as [Measuring sample preparation 1] for the peptides synthesized in Example 2 (peptides 17 to 21) were incubated for 4 weeks in a thermostatic bath at 40° C. to obtain stored samples.
A peptide solution prepared by the same method as [Measuring sample preparation 1] for peptide 22 synthesized in Example 2 was incubated for 1 week and 4 weeks in a thermostatic bath at 40° C. to obtain stored samples.

PAC1 receptor = target: T1, PAC1 receptor; experiment: cell-based or functional assay
VPAC1 receptor = target: T2, VPAC1 receptor; experiment: cell-based or functional assay

| Molecule | survival rate after correction for water, 40° C. 2 week [1] [%] | survival rate after correction for water, 40° C. 8 week [1] [%] | further results |
| --- | --- | --- | --- |
| CCCC[C@H](NC(=O)[C@H](CCC(N)=O)NC(=O)[C@H](CCCCN)NC(=O)[C@H](CCCNC(=N)N)NC(=O)[C@H](Cc1ccc(O)cc1)NC(=O)[C@H](CCCNC(=N)N)NC(=O)[C@H](CO)NC(=O)[C@H](Cc1ccc(O)cc1)NC(=O)[C@H](CO)NC(=O)[C@@H](Cc1nnn[nH]1)NC(=O)[C@@H](NC(=O)[C@H](Cc1ccccc1)NC(=O)[C@@H](NC(=O)CNC(=O)[C@@H](Cc1nnn[nH]1)NC(=O)[C@H](CO)NC(=O)[C@@H](N)Cc1c[nH]cn1)[C@@H](C)CC)[C@@H](C)O)C(=O)N[C@@H](C)C(=O)N[C@H](C(=O)N[C@@H](CCCCN)C(=O)N[C@@H](CCCCN)C(=O)N[C@@H](Cc1ccc(O)cc1)C(=O)N[C@@H](CC(C)C)C(=O)N[C@@H](C)C(=O)N[C@@H](C)C(=O)N[C@H](C(=O)N[C@@H](CC(C)C)C(N)=O)C(C)C)C(C)C [Peptide 13, HSTz(D)GI FTTz(D)SY SRYRK QNIAVK KYLAA VL] (H-HS[X1]GIFT[X1]SYSRYRKQ[Nle]AVKKYLAAVL-NH2) | 96.2 | 84.6 | – |
| CCCC[C@H](NC(=O)[C@H](CCC(N)=O)NC(=O)[C@H](CCCCN)NC(=O)[C@H](CCCNC(=N)N)NC(=O)[C@H](Cc1ccc(O)cc1)NC(=O)[C@H](CCCNC(=N)N)NC(=O)[C@H](CO)NC(=O)[C@H](Cc1ccc(O)cc1)NC(=O)[C@H](CO)NC(=O)[C@@H](Cc1nnn[nH]1)NC(=O)[C@@H](NC(=O)[C@H](Cc1ccccc1)NC(=O)[C@@H](NC(=O)CNC(=O)[C@H](Cc1nnn[nH]1)NC(=O)[C@H](CO)NC(=O)[C@@H](N)Cc1c[nH]cn1)[C@@H](C)CC)[C@@H](C)O)C(=O)N[C@@H](C)C(=O)N[C@H](C(=O)N[C@@H](CCCCN)C(=O)N[C@@H](CCCCN)C(=O)N[C@@H](Cc1ccc(O)cc1)C(=O)N[C@@H](CC(C)C)C(=O)N[C@@H](C)C(=O)N[C@@H](C)C(=O)N[C@H](C(=O)N[C@@H](CC(C)C)C(N)=O)C(C)C)C(C)C [Peptide 14, HSTzGI FTTz(D)SY SRYRK QNIAVK KYLAA VL] (H-HS[Ala(1H-tetrazol-5-yl)]GIFT[X1]SYSRYRKQ[Nle]AVKKYLAAVL-NH2) | 96.3 | 84.5 | – |
| CCCC[C@H](NC(=O)[C@H](CCC(N)=O)NC(=O)[C@H](CCCCN)NC(=O)[C@H](CCCNC(=N)N)NC(=O)[C@H](Cc1ccc(O)cc1)NC(=O)[C@H](CCCNC(=N)N)NC(=O)[C@H](CO)NC(=O)[C@H](Cc1ccc(O)cc1)NC(=O)[C@H](CO)NC(=O)[C@H](Cc1nnn[nH]1)NC(=O)[C@@H](NC(=O)[C@H](Cc1ccccc1)NC(=O)[C@@H](NC(=O)CNC(=O)[C@@H](Cc1nnn[nH]1)NC(=O)[C@H](CO)NC(=O)[C@@H](N)Cc1c[nH]cn1)[C@@H](C)CC)[C@@H](C)O)C(=O)N[C@@H](C)C(=O)N[C@H](C(=O)N[C@@H](CCCCN)C(=O)N[C@@H](CCCCN)C(=O)N[C@@H](Cc1ccc(O)cc1)C(=O)N[C@@H](CC(C)C)C(=O)N[C@@H](C)C(=O)N[C@@H](C)C(=O)N[C@H](C(=O)N[C@@H](CC(C)C)C(N)=O)C(C)C)C(C)C [Peptide 15, HSTz(D)GI FTTzSY SRYRK QNIAVK KYLAA VL] (H-HS[X1]GIFT[Ala(1H-tetrazol-5-yl)]SYSRYRKQ[Nle]AVKKYLAAVL-NH2) | 95.6 | 81.3 | – |
| CCCC[C@H](NC(=O)[C@H](CCC(N)=O)NC(=O)[C@H](CCCCN)NC(=O)[C@H](CCCNC(=N)N)NC(=O)[C@H](Cc1ccc(O)cc1)NC(=O)[C@H](CCCNC(=N)N)NC(=O)[C@H](CO)NC(=O)[C@H](Cc1ccc(O)cc1)NC(=O)[C@H](CO)NC(=O)[C@H](CCc1nnn[nH]1)NC(=O)[C@@H](NC(=O)[C@H](Cc1ccccc1)NC(=O)[C@@H](NC(=O)CNC(=O)[C@H](Cc1nnn[nH]1)NC(=O)[C@H](CO)NC(=O)[C@@H](N)Cc1c[nH]cn1)[C@@H](C)CC)[C@@H](C)O)C(=O)N[C@@H](C)C(=O)N[C@H](C(=O)N[C@@H](CCCCN)C(=O)N[C@@H](CCCCN)C(=O)N[C@@H](Cc1ccc(O)cc1)C(=O)N[C@@H](CC(C)C)C(=O)N[C@@H](C)C(=O)N[C@@H](C)C(=O)N[C@H](C(=O)N[C@@H](CC(C)C)C(N)=O)C(C)C)C(C)C [Peptide 16, HSTzGI FTegTzSY SRYRK QNIAVK KYLAA VL] (H-HS[Ala(1H-tetrazol-5-yl)]GIFT[X3]SYSRYRKQ[Nle]AVKKYLAAVL-NH2) | 94.4 | 80.3 | – |
| CCCC[C@H](NC(=O)[C@H](CCC(N)=O)NC(=O)[C@H](CCCCN)NC(=O)[C@H](CCCNC(=N)N)NC(=O)[C@H](Cc1ccc(O)cc1)NC(=O)[C@H](CCCNC(=N)N)NC(=O)[C@H](CO)NC(=O)[C@H](Cc1ccc(O)cc1)NC(=O)[C@H](CO)NC(=O)[C@H](Cc1nnn[nH]1)NC(=O)[C@@H](NC(=O)[C@H](Cc1ccccc1)NC(=O)[C@@H](NC(=O)CNC(=O)[C@H](Cc1nnn[nH]1)NC(=O)[C@H](CO)NC(=O)[C@H](Cc1c[nH]cn1)NC(=O)CC)[C@@H](C)CC)[C@@H](C)O)C(=O)N[C@@H](C)C(=O)N[C@H](C(=O)N[C@@H](CCCCN)C(=O)N[C@@H](CCCCN)C(=O)N[C@@H](Cc1ccc(O)cc1)C(=O)N[C@@H](CC(C)C)C(=O)N[C@@H](C)C(=O)N[C@@H](C)C(=O)N[C@H](C(=O)N[C@@H](CC(C)C)C(N)=O)C(C)C)C(C)C [Peptide 17, HSTzGI FTTzSY SRYRK QNIAVK KYLAA VL] (Propionyl-HS[Ala(1H-tetrazol-5-yl)]GIFT[Ala(1H-tetrazol-5-yl)]SYSRYRKQ[Nle]AVKKYLAAVL-NH2) | – | – | survival rate after correction for water, 40° C. 4 week [1]: 59.2% |
| CCCC[C@H](NC(=O)[C@H](CCC(N)=O)NC(=O)[C@H](CCCCN)NC(=O)[C@H](CCCNC(=N)N)NC(=O)[C@H](Cc1ccc(O)cc1)NC(=O)[C@H](CCCNC(=N)N)NC(=O)[C@H](CO)NC(=O)[C@H](Cc1ccc(O)cc1)NC(=O)[C@H](CO)NC(=O)[C@H](Cc1nnn[nH]1)NC(=O)[C@@H](NC(=O)[C@H](Cc1ccccc1)NC(=O)[C@@H](NC(=O)CNC(=O)[C@H](Cc1nnn[nH]1)NC(=O)[C@H](CO)NC(=O)[C@H](Cc1c[nH]cn1)NC(=O)CC(C)C)[C@@H](C)CC)[C@@H](C)O)C(=O)N[C@@H](C)C(=O)N[C@H](C(=O)N[C@@H](CCCCN)C(=O)N[C@@H](CCCCN)C(=O)N[C@@H](Cc1ccc(O)cc1)C(=O)N[C@@H](CC(C)C)C(=O)N[C@@H](C)C(=O)N[C@@H](C)C(=O)N[C@H](C(=O)N[C@@H](CC(C)C)C(N)=O)C(C)C)C(C)C [Peptide 21] (Isovaleryl-HS[Ala(1H-tetrazol-5-yl)]GIFT[Ala(1H-tetrazol-5-yl)]SYSRYRKQ[Nle]AVKKYLAAVL-NH2) | – | – | survival rate after correction for water, 40° C. 4 week [1]: 69.0% |
| HS[Tz]GIFA[Tz]AYARYRKQMAVKKYLAAVL-NH2 (also: Tz racemic) [Peptide 3] | – | – | EC50, cAMP assay (Hit Hunter cAMP, chemiluminescence RLU) (PAC1 receptor): 0.689 nM; EC50, cAMP assay (Hit Hunter cAMP, chemiluminescence RLU) (VPAC1 receptor): 0.111 nM |

— US20250263459A1, “STABILIZED PACAP PEPTIDE” (SENJU PHARMACEUTICAL CO., LTD., priority 2019, published 2025)
